This experiment has as its target T1, immobilized ELAM-1 (Homo sapiens, UniProt P16581).
T1 construct: truncated form comprising the complete extracellular domain (amino acids 1 through 554); made in house; released with phospholipase C
T1 sequence (P16581 22-554): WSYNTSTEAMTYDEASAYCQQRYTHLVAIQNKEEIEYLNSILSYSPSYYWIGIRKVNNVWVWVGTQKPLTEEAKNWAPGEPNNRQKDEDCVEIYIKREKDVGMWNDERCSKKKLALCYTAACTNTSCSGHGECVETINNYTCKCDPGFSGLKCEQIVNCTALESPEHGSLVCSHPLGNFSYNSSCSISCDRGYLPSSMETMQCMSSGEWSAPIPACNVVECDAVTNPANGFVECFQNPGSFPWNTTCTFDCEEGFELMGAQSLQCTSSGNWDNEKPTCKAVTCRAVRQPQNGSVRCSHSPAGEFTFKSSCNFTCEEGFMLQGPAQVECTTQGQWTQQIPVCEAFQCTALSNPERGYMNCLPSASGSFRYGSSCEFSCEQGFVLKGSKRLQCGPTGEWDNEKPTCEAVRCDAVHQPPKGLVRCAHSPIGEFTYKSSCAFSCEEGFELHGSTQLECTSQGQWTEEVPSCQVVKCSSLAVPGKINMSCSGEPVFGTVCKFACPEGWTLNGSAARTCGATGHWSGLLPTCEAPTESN
Briefly: cell-based. Format: cell-based. As to the method:
By comparing test wells with control wells (no receptor), one can determine whether a peptide binds to ELAM-1 specifically. Peptides found to bind specifically to ELAM-1 were then synthesized as the free peptide (no phage) and tested in an HL60 cell adhesion competition assay. The competition assay was carried out similarly to the ELISA, except that labeled HL60 cells were added in addition to the peptide (the control wells were typically of at least two types: (1) no immobilized ELAM-1; and (2) no peptide; see the Examples). Peptides that block the binding of labeled HL60 cells ELAM-1 are preferred compounds of the invention. […] The assay requires HL60 cells labeled with tritiated thymidine. To label the cells, about 10 million HL60 cells are collected by centrifugation (2500 RPM for 3 minutes) and resuspended in 15 mL of DMEM/F12 plus 5% fetal calf serum containing 2 μCi/mL of tritiated thymidine (Amersham). The cells are then placed in a T75 flask and incubated at 37°C for 24 hours. The cells are then collected by centrifugation, washed twice with RPMI/HEPES/0.1% FCS, and resuspended in the same solution at a concentration of about one to two million cells per mL. […] After this incubation, aliquots were removed from each well and placed in scintillation vials; scintillation fluid was added to each vial; and the radioactivity in each aliquot was quantitated by LS counting. […]

This is an account of results in patent EP0700301B1, “PEPTIDES AND COMPOUNDS THAT BIND TO ELAM-1” (AFFYMAX TECHNOLOGIES N.V., priority 1993, dated 1994).

Ends that are not written are not given here.

Take HITWDQLWNVMN: for the setting “200000.0”, the “blocking of HL60 cell binding that occurred in the absence of added compound” value is given as “over 80%”. Further, the inhibition at 50 µM (HL-60, at a concentration of 50 µM, tested from 0.5 to 100 µM, Figure 2, read-out: inhibition of binding of HL60 cells) was approximately 50%.
